In US8574563B2 (Bristol-Myers Squibb Company, priority 2006, dated 2013):
pEC50: −log10 of the molar value.

Each compound was assayed on HCV 1b-377-neo replicon cells (assay: HCV replicon assay, HCV 1b-377-neo replicon cells (1b FRET)). Conditions: HCV 1b-377-neo replicon cells; HCV 1b genotype; read-out: EC50 range against HCV 1b (Table 2, Range).
Assay type: cell-based, Hepatitis C virus genotype 1b
Procedure, shortened: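 FRET-based replicon assay in HCV 1b-377-neo cells, including a comparison line carrying the NS5A Y2065H mutation that confers resistance to a reference compound.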

| Structure (SMILES) | pEC50 |
| --- | --- |
| COC(=O)N[C@@H](CCN1CCOCC1)C(=O)N1CCC[C@H]1c1ncc(-c2ccc(-c3ccc(-c4cnc([C@@H]5CCCN5C(=O)[C@@H](NC(=O)OC)C(C)C)[nH]4)cc3)cc2)[nH]1 [Example M68] | 6.00 to 7.00 |
| CN(C)[C@@H](C(=O)N1CCC[C@H]1c1nc(-c2ccc(-c3ccc(-c4cn(C)c([C@@H]5CCCN5C(=O)[C@@H](c5ccccc5)N(C)C)n4)cc3)cc2)cn1C)c1ccccc1 (single isomer, unassigned) [151 isomer 1] | 7.00 to 9.00 |

Same assay, conditions: Hepatitis C virus, HCV 1b-377-neo replicon cells; HCV 1b genotype; read-out: EC50 range against HCV 1b (Table 2, Range)

| Structure (SMILES) | pEC50 |
| --- | --- |
| CCN(CC)[C@H](C)C(=O)N1CCC[C@H]1c1ncc(-c2ccc(-c3ccc(-c4cnc([C@@H]5CCCN5C(=O)[C@H](NC(=O)OC)c5ccccc5)[nH]4)cc3)cc2)[nH]1 [Example M63, methyl ((1R)-2-((2S)-2-(5-(4′-(2-((2S)-1-(N,N-diethyl-D-alanyl)-2-pyrrolidinyl)-1H-imidazol-5-yl)-4-biphenylyl)-1H-imidazol-2-yl)-1-pyrrolidinyl)-2-oxo-1-phenylethyl)carbamate] | 7.00 to 9.00 |
| CN(C)C(C(=O)N1CCC[C@H]1c1ncc(-c2ccc(-c3ccc(-c4cnc([C@@H]5CCCN5C(=O)[C@@H](c5ccccc5)N(C)C)[nH]4)cc3)cc2)[nH]1)c1cccnc1 (stereo partly drawn) [Example 94-45, 2-((2S)-2-(5-(4′-(2-((2S)-1-((2R)-2-(dimethylamino)-2-phenylacetyl)-2-pyrrolidinyl)-1H-imidazol-5-yl)-4-biphenylyl)-1H-imidazol-2-yl)-1-pyrrolidinyl)-N,N-dimethyl-2-oxo-1-(3-pyridinyl)ethanamine] | 9.00 to 12.00 |
| COC(=O)N[C@@H](C)C(=O)N1CC[C@H](O)[C@H]1c1ncc(-c2ccc(-c3ccc(-c4cnc([C@@H]5CCCN5C(=O)[C@H](C)NC(=O)OC)[nH]4)cc3)cc2)[nH]1 [OL-20, methyl ((1S)-2-((2S)-2-(4-(4′-(2-((2R,3S)-3-hydroxy-1-(N-(methoxycarbonyl)-L-alanyl)-2-pyrrolidinyl)-1H-imidazol-4-yl)-4-biphenylyl)-1H-imidazol-2-yl)-1-pyrrolidinyl)-1-methyl-2-oxoethyl)carbamate] | 7.00 to 9.00 |
| COC(=O)N[C@@H](C)C(=O)N1CCC[C@H]1c1ncc(-c2ccc(-c3ccc(-c4cnc([C@@H]5CCCN5C(=O)[C@H](Cc5cccnc5)NC(=O)OC)[nH]4)cc3)cc2)[nH]1 [cj-85, methyl ((1S)-2-((2S)-2-(5-(4′-(2-((2S)-1-(N-(methoxycarbonyl)-L-alanyl)-2-pyrrolidinyl)-1H-imidazol-5-yl)-4-biphenylyl)-1H-imidazol-2-yl)-1-pyrrolidinyl)-2-oxo-1-(3-pyridinylmethyl)ethyl)carbamate] | 9.00 to 12.00 |
| CCCN(CCC)[C@@H](C)C(=O)N1CCC[C@H]1c1ncc(-c2ccc(-c3ccc(-c4cnc([C@@H]5CCCN5C(=O)[C@H](C)NC(=O)OC)[nH]4)cc3)cc2)[nH]1 [Example M103, methyl ((1S)-2-((2S)-2-(5-(4′-(2-((2S)-1-(N,N-dipropyl-L-alanyl)-2-pyrrolidinyl)-1H-imidazol-5-yl)-4-biphenylyl)-1H-imidazol-2-yl)-1-pyrrolidinyl)-1-methyl-2-oxoethyl)carbamate] | 6.00 to 7.00 |
| CC(C)C(C(=O)N1CCC[C@H]1c1ncc(-c2ccc(-c3ccc(-c4cnc([C@@H]5CCCN5C(=O)C(C(C)C)N(C)Cc5ccccc5)[nH]4)cc3)cc2)[nH]1)N(C)Cc1ccccc1 (stereo partly drawn) [Example 24-4g, 1,1′-(4,4′-biphenyldiylbis(1H-imidazole-5,2-diyl(2S)-2,1-pyrrolidinediyl))bis(N-benzyl-N,3-dimethyl-1-oxo-2-butanamine)] | 5.00 to 6.00 |
| CCN(CC)[C@@H](C(=O)N1CCC[C@H]1c1ncc(-c2ccc(-c3ccc(-c4cnc([C@@H]5CCCN5C(=O)[C@H](C)NC(=O)OC)[nH]4)cc3)cc2)[nH]1)C(C)C [Example M101, methyl ((1S)-2-((2S)-2-(5-(4′-(2-((2S)-1-(N,N-diethyl-D-valyl)-2-pyrrolidinyl)-1H-imidazol-5-yl)-4-biphenylyl)-1H-imidazol-2-yl)-1-pyrrolidinyl)-1-methyl-2-oxoethyl)carbamate] | 6.00 to 7.00 |
| CCC[C@H](NC(=O)OC)C(=O)N1CCC[C@H]1c1ncc(-c2ccc(-c3ccc(-c4cnc([C@@H]5CCCN5C(=O)[C@@H](c5ccccc5)N(CC)CC)[nH]4)cc3)cc2)[nH]1 [Example M62, methyl ((1S)-1-(((2S)-2-(5-(4′-(2-((2S)-1-((2R)-2-(diethylamino)-2-phenylacetyl)-2-pyrrolidinyl)-1H-imidazol-5-yl)-4-biphenylyl)-1H-imidazol-2-yl)-1-pyrrolidinyl)carbonyl)butyl)carbamate] | 7.00 to 9.00 |
| COC(=O)N[C@@H](C(=O)N1CCC[C@H]1c1ncc(-c2ccc(-c3ccc(-c4cnc([C@@H]5CCCN5C(=O)Cc5cccc(O)c5)[nH]4)cc3)cc2)[nH]1)c1ccccc1 [Example 84-14, methyl ((1R)-2-((2S)-2-(5-(4′-(2-((2S)-1-((3-hydroxyphenyl)acetyl)-2-pyrrolidinyl)-1H-imidazol-5-yl)-4-biphenylyl)-1H-imidazol-2-yl)-1-pyrrolidinyl)-2-oxo-1-phenylethyl)carbamate] | 7.00 to 9.00 |
| COC(=O)N[C@@H](C(=O)N1CCC[C@H]1c1ncc(-c2ccc(-c3ccc(-c4cnc([C@@H]5CCCN5C(=O)Cc5cccnc5)[nH]4)cc3)cc2)[nH]1)c1ccccc1 [Example 47, methyl ((1R)-2-oxo-1-phenyl-2-((2S)-2-(5-(4′-(2-((2S)-1-(3-pyridinylacetyl)-2-pyrrolidinyl)-1H-imidazol-5-yl)-4-biphenylyl)-1H-imidazol-2-yl)-1-pyrrolidinyl)ethyl)carbamate] | 9.00 to 12.00 |
| COC(=O)N[C@@H](Cc1cccnc1)C(=O)N1CCC[C@H]1c1ncc(-c2ccc(-c3ccc(-c4cnc([C@@H]5CCCN5C(=O)[C@@H](NC(=O)OC)C(C)C)[nH]4)cc3)cc2)[nH]1 [cj-83, methyl ((1S)-2-((2S)-2-(5-(4′-(2-((2S)-1-((2S)-2-((methoxycarbonyl)amino)-3-methylbutanoyl)-2-pyrrolidinyl)-1H-imidazol-5-yl)-4-biphenylyl)-1H-imidazol-2-yl)-1-pyrrolidinyl)-2-oxo-1-(3-pyridinylmethyl)ethyl)carbamate] | 9.00 to 12.00 |
| COC(=O)N[C@H](C(=O)N1CCC[C@H]1c1ncc(-c2ccc(-c3ccc(-c4cnc([C@@H]5CCCN5C(=O)c5c[nH]cn5)[nH]4)cc3)cc2)[nH]1)C(C)C [Example M87, methyl ((1S)-1-(((2S)-2-(5-(4′-(2-((2S)-1-(1H-imidazol-4-ylcarbonyl)-2-pyrrolidinyl)-1H-imidazol-5-yl)-4-biphenylyl)-1H-imidazol-2-yl)-1-pyrrolidinyl)carbonyl)-2-methylpropyl)carbamate] | 7.00 to 9.00 |
| CCN[C@@H](C(=O)N1CCC[C@H]1c1ncc(-c2ccc(-c3ccc(-c4c[nH]c([C@@H]5CCCN5C(=O)[C@H](C)NC(=O)OC)n4)cc3)cc2)[nH]1)c1ccccc1 [Example F41, methyl ((1S)-2-((2S)-2-(4-(4′-(2-((2S)-1-((2R)-2-(ethylamino)-2-phenylacetyl)-2-pyrrolidinyl)-1H-imidazol-5-yl)-4-biphenylyl)-1H-imidazol-2-yl)-1-pyrrolidinyl)-1-methyl-2-oxoethyl)carbamate] | 9.00 to 12.00 |
| CC[C@@H](C)[C@H](NC)C(=O)N1CCC[C@H]1c1nc(-c2ccc(-c3ccc(-c4cnc([C@@H]5CCCN5C(=O)[C@@H](NC)[C@H](C)CC)[nH]4)cc3)cc2)c[nH]1 [Example F35, (2S,3R)-N,3-dimethyl-1-((2S)-2-(4-(4′-(2-((2S)-1-((2S,3R)-3-methyl-2-(methylamino)pentanoyl)-2-pyrrolidinyl)-1H-imidazol-5-yl)-4-biphenylyl)-1H-imidazol-2-yl)-1-pyrrolidinyl)-1-oxo-2-pentanamine] | 6.00 to 7.00 |
| CN(C)[C@@H](C(=O)N1CCC[C@H]1c1ncc(-c2ccc(-c3ccc(-c4cnc([C@@H]5CCCN5C(=O)[C@@H](c5ccccc5)N5CCC(C)(O)CC5)[nH]4)cc3)cc2)[nH]1)c1ccccc1 [Example 94-3, 1-((1R)-2-((2S)-2-(5-(4′-(2-((2S)-1-((2R)-2-(dimethylamino)-2-phenylacetyl)-2-pyrrolidinyl)-1H-imidazol-5-yl)-4-biphenylyl)-1H-imidazol-2-yl)-1-pyrrolidinyl)-2-oxo-1-phenylethyl)-4-methyl-4-piperidinol] | 9.00 to 12.00 |
| COC(=O)N[C@@H](C(=O)N1[C@H](c2ncc(-c3ccc(-c4ccc(-c5cnc([C@@H]6C[C@@H]7C[C@@H]7N6C(=O)[C@H](NC(=O)OC)C(C)C)[nH]5)cc4)cc3)[nH]2)C[C@@H]2C[C@@H]21)C(C)C [Example M123, methyl ((1R)-1-(((1S,3S,5S)-3-(5-(4′-(2-((1S,3S,5S)-2-((2R)-2-((methoxycarbonyl)amino)-3-methylbutanoyl)-2-azabicyclo[3.1.0]hex-3-yl)-1H-imidazol-5-yl)-4-biphenylyl)-1H-imidazol-2-yl)-2-azabicyclo[3.1.0]hex-2-yl)carbonyl)-2-methylpropyl)carbamate] | 5.00 to 6.00 |
| COC(=O)N[C@@H]1CC[C@H](C(=O)N2CCC[C@H]2c2ncc(-c3ccc(-c4ccc(-c5cnc([C@@H]6CCCN6C(=O)[C@H]6CC[C@@H](NC(=O)OC)C6)[nH]5)cc4)cc3)[nH]2)C1 [cj-144, dimethyl (4,4′-biphenyldiylbis(1H-imidazole-5,2-diyl(2S)-2,1-pyrrolidinediylcarbonyl(1R,3S)-3,1-cyclopentanediyl))biscarbamate] | 9.00 to 12.00 |
| COC(=O)N[C@@H](C(=O)N1CCC[C@H]1c1ncc(-c2ccc(-c3ccc(-c4cnc([C@@H]5CCCN5C(=O)[C@H](OC(C)=O)c5ccccc5)[nH]4)cc3)cc2)[nH]1)c1ccccc1 [Example 84-82, (1R)-2-((2S)-2-(5-(4′-(2-((2S)-1-((2R)-2-((methoxycarbonyl)amino)-2-phenylacetyl)-2-pyrrolidinyl)-1H-imidazol-5-yl)-4-biphenylyl)-1H-imidazol-2-yl)-1-pyrrolidinyl)-2-oxo-1-phenylethyl acetate] | 9.00 to 12.00 |
